Test results from paper PMC12592420, “A mismatch in enzyme-redox partnerships underlies divergent cytochrome P450 activities between human hepatocytes and microsomes” (Communications Biology, 2025).
“And” between values parts separate entries of the source, which are not always exact repeats. Identical values can stand only once.

What was measured:
[1] = Free fraction in rat hepatocytes as surrogate for HH, equilibrium dialysis; format: in vitro ADME; conditions: rat hepatocytes (surrogate for human hepatocytes); printed as HH; rat hepatocytes used as surrogate
[2] = system: rat hepatocytes; assay: as above; format: in vitro ADME; conditions: fraction unbound, measured or estimated by in silico models of Fuinc
[3] = Intrinsic permeability in Caco-2 cells with efflux inhibited; conditions: human, Caco-2
[4] = cited from earlier work
[5] = molecular target: T1, recombinant human CYP1A2 (Homo sapiens, UniProt P05177); assay: Recombinant CYP panel, savolitinib CLint; format: in vitro ADME
T1 sequence (P05177 1-516): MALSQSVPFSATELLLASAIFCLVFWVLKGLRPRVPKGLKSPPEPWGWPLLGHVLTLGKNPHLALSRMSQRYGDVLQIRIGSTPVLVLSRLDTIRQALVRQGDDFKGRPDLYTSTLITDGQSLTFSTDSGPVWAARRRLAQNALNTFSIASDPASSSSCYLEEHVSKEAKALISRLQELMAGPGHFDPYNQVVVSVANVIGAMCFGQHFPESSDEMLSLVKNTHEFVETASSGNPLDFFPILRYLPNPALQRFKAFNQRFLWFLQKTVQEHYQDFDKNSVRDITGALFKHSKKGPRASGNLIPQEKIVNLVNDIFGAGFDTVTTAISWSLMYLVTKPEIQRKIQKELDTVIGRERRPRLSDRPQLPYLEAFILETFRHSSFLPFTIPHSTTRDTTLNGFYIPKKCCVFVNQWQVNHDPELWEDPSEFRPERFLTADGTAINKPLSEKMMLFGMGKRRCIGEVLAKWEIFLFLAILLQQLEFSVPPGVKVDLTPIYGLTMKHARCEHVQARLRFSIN
Procedure: (§1) […]
(§2) The clearance of savolitinib was
(§3) The average intrinsic clearance was
(§4) concentrations (final 0.1 µM).

[6] = molecular target: T2, recombinant human CYP2A6 (Homo sapiens, UniProt P11509); assay: Recombinant CYP panel, savolitinib CLint; format: in vitro ADME
T2 sequence (P11509 1-494): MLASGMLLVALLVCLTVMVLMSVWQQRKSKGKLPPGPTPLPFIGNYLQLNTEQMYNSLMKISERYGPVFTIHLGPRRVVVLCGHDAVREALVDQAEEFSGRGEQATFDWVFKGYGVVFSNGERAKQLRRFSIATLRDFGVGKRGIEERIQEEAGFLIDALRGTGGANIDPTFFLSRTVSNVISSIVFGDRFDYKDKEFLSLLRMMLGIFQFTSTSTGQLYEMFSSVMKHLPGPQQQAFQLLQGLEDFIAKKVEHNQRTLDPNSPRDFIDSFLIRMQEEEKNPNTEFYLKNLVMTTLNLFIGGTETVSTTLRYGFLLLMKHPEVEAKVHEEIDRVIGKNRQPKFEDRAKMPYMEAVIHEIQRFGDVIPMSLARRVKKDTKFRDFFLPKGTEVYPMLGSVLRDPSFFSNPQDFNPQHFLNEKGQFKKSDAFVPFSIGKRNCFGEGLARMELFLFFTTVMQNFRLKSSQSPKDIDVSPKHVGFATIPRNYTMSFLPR
Procedure: as §1, §2, §3, §4

[7] = molecular target: recombinant human CYP2D6 (Homo sapiens, UniProt P10635); assay: Recombinant CYP panel, savolitinib CLint; format: in vitro ADME
Procedure: as §1, §2, §3, §4

[8] = molecular target: recombinant human CYP3A5 (Homo sapiens, UniProt P20815); assay: Recombinant CYP panel, savolitinib CLint; format: in vitro ADME
Procedure: as §1, §2, §3, §4

[9] = molecular target: recombinant human CYP2C19 (Homo sapiens, UniProt P33261); assay: Recombinant CYP panel, savolitinib CLint; format: in vitro ADME; conditions: CYP2C19, inter-system extrapolation factors
Procedure: as §1, §2, §3, §4

[10] = molecular target: recombinant human CYP3A4 (Homo sapiens, UniProt P08684); assay: Recombinant CYP panel, savolitinib CLint; format: in vitro ADME
Procedure: as §1, §2, §3, §4

[11] = CLint in NADH-supplemented human liver microsomes; conditions: human, pH 7.4
Procedure: (§5) Calculation and scaling of CLint,u was done using the equation below and 45 mg of microsomal protein per gram of liver. HLMCLint,u=ln2/x1/t1/2(min)xmLincubation/mgmicrosomalproteinx45mgmicrosomalprotein/gliverx21gliver/kg/Fuinc

[12] = CLint in NADPH-supplemented human liver microsomes; conditions: human
Procedure: as §5

[13] = molecular target: T3, CYP1A2-Cytb5R (Homo sapiens, UniProt P05177); assay: Turnover by non-canonical recombinant CYP1A2-Cytb5R; format: in vitro ADME; conditions: noncanonical CYP1A2-Cytb5R
T3 construct: purchased BioIVT (custom synthesis) CE00001 (CYP1A2), batch CPD034-1A2-30; host or cells: bactosomes
T3 sequence (P05177 1-516): T1 sequence (P05177 1-516)
Description: As commercial recombinant human CYPs co-express the individual CYP and reductase with an option to include cytochrome b5. A custom synthesis co-expressing CYP3A4 or CYP1A2 and Cytb5R plus cytochrome b5 was, therefore, ordered from BioIVT and the bactosomes were compared with canonical CYP-POR enzymes plus cytochrome b5.

[14] = molecular target: T4, recombinant CYP3A4-POR (Homo sapiens, UniProt P08684); assay: Savolitinib incubation with recombinant CYP3A4-POR Supersomes; format: in vitro ADME; conditions: CYP3A4-POR 100 pmol/mL, 1 µM, 1 h (Fig. 2b)
T4 construct: purchased 456202
Procedure: For detailed comparisons between recombinant CYP1A2 and CYP3A4 (Fig. 2B, C), Supersomes were used (CYP1A2, catalogue number 456203, CYP3A4, catalogue number 456202). […] The concentration of savolitinib metabolites M2 and M4 formed were determined from standard curves obtained by spiking the appropriate concentrations of M2 and M4 into recombinant enzymes (in the absence of NADPH) and processing in the same way as the samples.

[15] = LogD pH 7.4, octanol/phosphate buffer; conditions: octanol/phosphate buffer, pH 7.4
[16] = Free savolitinib in incubation with 150 mg/mL bovine serum albumin; format: in vitro ADME; conditions: BSA final 150 mg/mL
[17] = healthy volunteers; cited from earlier work
[18] = in vitro; conditions: human, hepatocytes
[19] = Free fraction in HLM incubation, equilibrium dialysis; format: in vitro ADME, human

T4 sequence (P08684 whole entry): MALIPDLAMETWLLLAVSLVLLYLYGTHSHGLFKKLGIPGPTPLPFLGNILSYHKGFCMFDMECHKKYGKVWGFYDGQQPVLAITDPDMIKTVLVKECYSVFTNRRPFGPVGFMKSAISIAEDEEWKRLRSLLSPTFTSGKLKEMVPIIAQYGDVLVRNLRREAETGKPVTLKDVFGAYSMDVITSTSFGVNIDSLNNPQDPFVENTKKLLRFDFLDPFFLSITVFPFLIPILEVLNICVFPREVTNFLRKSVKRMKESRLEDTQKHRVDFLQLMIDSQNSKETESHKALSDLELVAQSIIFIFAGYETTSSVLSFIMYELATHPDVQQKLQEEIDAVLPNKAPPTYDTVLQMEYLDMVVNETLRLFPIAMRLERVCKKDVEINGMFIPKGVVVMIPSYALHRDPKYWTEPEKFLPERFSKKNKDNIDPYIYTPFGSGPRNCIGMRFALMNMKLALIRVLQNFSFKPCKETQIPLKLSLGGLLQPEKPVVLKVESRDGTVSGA
recombinant human CYP3A5, sequence (P20815 whole entry): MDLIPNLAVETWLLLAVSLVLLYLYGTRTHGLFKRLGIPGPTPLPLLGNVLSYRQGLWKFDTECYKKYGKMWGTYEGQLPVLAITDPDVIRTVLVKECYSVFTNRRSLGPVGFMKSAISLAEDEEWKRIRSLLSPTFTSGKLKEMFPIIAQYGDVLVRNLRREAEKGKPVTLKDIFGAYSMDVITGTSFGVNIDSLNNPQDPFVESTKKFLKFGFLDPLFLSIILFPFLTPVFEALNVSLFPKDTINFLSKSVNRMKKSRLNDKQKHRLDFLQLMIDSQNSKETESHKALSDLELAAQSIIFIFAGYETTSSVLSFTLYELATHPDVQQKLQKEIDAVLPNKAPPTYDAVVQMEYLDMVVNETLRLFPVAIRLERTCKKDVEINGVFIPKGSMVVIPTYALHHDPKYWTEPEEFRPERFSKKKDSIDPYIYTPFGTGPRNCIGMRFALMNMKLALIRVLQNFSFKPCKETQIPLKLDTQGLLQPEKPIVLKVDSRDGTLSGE
recombinant human CYP3A4, sequence (P08684 whole entry): as the sequence (P08684 whole entry) above
recombinant human CYP2D6, sequence (P10635 whole entry): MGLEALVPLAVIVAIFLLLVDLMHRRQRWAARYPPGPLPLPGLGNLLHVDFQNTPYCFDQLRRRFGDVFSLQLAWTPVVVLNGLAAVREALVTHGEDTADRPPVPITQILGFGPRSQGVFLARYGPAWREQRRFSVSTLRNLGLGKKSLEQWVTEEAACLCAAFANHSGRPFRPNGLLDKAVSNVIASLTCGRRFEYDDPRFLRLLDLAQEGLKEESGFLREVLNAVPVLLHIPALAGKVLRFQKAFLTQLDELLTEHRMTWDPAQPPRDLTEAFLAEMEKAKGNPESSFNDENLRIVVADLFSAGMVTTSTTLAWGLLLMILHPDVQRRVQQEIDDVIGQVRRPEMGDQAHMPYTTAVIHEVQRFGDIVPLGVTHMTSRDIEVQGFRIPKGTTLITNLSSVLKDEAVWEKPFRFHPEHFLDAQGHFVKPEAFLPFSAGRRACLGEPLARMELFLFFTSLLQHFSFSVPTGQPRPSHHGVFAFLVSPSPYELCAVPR
recombinant human CYP2C19, sequence (P33261 whole entry): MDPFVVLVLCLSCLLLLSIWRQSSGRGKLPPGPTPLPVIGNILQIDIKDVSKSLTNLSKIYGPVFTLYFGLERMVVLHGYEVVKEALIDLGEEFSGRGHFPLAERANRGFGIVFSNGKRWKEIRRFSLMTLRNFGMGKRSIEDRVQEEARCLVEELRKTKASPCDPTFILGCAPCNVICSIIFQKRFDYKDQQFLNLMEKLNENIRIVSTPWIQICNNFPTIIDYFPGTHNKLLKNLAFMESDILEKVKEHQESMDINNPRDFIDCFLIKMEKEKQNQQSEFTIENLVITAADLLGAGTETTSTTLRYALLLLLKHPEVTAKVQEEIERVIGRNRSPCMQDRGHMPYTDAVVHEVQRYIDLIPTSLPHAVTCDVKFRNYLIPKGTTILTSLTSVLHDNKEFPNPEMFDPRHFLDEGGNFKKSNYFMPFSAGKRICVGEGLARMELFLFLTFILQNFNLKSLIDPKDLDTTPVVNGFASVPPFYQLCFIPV

C[C@@H](c1ccc2nccn2c1)n1nnc2ncc(-c3cnn(C)c3)nc21 [Savolitinib]
fraction unbound at 4 h, 1 µM [1]: 0.847 | fu_ratHH [2]: 0.847 | Papp at 2 h, 10 µM [3]: 53.7 ×10⁻⁶ cm/s | free in normal plasma [4]: 29% | % contribution ([5]; CYP1A2, inter-system extrapolation factors): 1.6% | CLint ([5]; CYP1A2, only two experiments measurable): 0.0386 µL/min/pmol CYP | % contribution ([6]; CYP2A6, inter-system extrapolation factors): 0.2% | CLint ([6]; CYP2A6, only one experiment measurable): 0.0148 µL/min/pmol CYP | CLint ([7]; CYP2D6, average of three): 0.309 ± 0.0010 µL/min/pmol CYP | % contribution ([7]; CYP2D6, inter-system extrapolation factors): 1.8% | % contribution ([8]; CYP3A5, inter-system extrapolation factors): 12% | CLint ([8]; CYP3A5, only two experiments measurable): 0.0939 µL/min/pmol CYP | % contribution [9]: 1.9% | CLint ([10]; CYP3A4, average of three): 0.489 ± 0.0278 µL/min/pmol CYP | % contribution ([10]; CYP3A4, inter-system extrapolation factors): 83% | microsomal CLint at 1 µM ([11]; human liver microsomes + NADH): 1.6 µL/min/mg | CLint scaled at 1 µM ([11]; human liver microsomes): 1.62 mL/min/kg | microsomal CLint at 1 µM ([12]; human liver microsomes + NADPH, pH 7.4): 9.8 µL/min/mg | CLint scaled at 1 µM ([12]; human liver microsomes, pH 7.4, NADPH_HLM_scaled_CLint,u, Fig. 4a,d): 9.9 mL/min/kg | turnover (metabolite formation or disappearance of parent) [13]: no detectable turnover | Percentage savolitinib remaining [14]: 1.366% and 5.612% and 4.281% | logD [15]: 1.81 | free savolitinib [16]: 17% | oxidation by aldehyde oxidase, share of the dose [17]: 19 % of the dose | oxidation/hydrolysis on the imidazopyridine moiety, share of the dose [17]: 16 % of the dose | hepatocyte CLint at 1 µM ([18]; both): 1 µL/min/1e6 cells | CLint scaled at 1 µM ([18]; HH_scaled_CLint,u): 2.98 mL/min/kg | fu_HLM ([19]; fraction unbound, measured or estimated by in silico models of Fuinc): 0.935 | fraction unbound at 4 h, 1 µM ([19]; human, human liver microsomes, pH 7.4): 0.935
